{
  "source": "patent US20150366190A1",
  "about": "“Sustained Release Methods to Defeat Plant Pests” (BioGuard Technologies, Inc., priority 2014, published 2015)",
  "key": {"[1]": {"assay": "Rapid solvent extraction screen of coated specimens (water, 50% MeOH, 100% MeOH)", "assay_type": "physicochemical", "protocol": "(§1) Two experimental protocols were used to evaluate aqueous release and the extent of active retention. The first protocol was a rapid solvent extraction screen that involved dipping the coated specimens sequentially into vials containing 35 ml water for 1, 1, 5, and 10 minutes, then 50% MeOH for 10 minutes, and 100% MeOH for 24 hours. This protocol provided a rapid comparison of water soluble and entrained, but releasable, active fractions. The second protocol was to assess release rates based on simulated precipitation/rainfall conditions. This protocol involved maintaining test samples in successive 35 ml volumes of water for 24-hour periods for up to […], providing a cumulative daily release rate from dried films. This water extraction period was followed by a single extraction in 100% MeOH for 24 and 48 hrs to determine residual/entrained or solvent removable active. The aqueous leach procedure is considered extreme in simulating intermittent daily rainfalls of varying intensity, but does provide the rates of release for comparative purposes.\nThe influence of formulation factors on cyproconazole release and entrainment from aqueous solutions containing 0.2% EtOH without latex (FIG. 1A) was compared to the subsequent EtOH studies with latex. […] This would be expected to represent the relative solubility and release of active, and likely dependent on water solubility of the active.\nTo determine the influence of latex on cyproconazole release, cyproconazole was first dissolved in ethanol and added to 2% latex solutions to assess the effects on cyproconazole binding with latex using solvent extractions (FIG. 1A).\nThe first step was to determine the solvent extractability of the non-latex formulations. This was based on readily soluble (water, 17 minutes), easily soluble (50% MeOH, 10 minutes), and relatively non-water soluble (100% MeOH, 24 hr) fractions of the formulations (FIG. 3).\nA total of nine commercial surfactants (Table 1) were compared for relative entrainment of cyproconazole in latex, based on the percent of active contained in the 100% MeOH fraction (FIG. 5).\nThe same solvent extraction protocol was used to evaluate 2 other fungicides (chlorothalonil and spiroxamine) with differing chemistries (water solubility and solvent solubility). These were evaluated using the same solvent extraction protocol. The three surfactants that worked best with cyproconazole were used for these actives."}, "[2]": {"assay": "Simulated rainfall / sequential aqueous leaching of dried films", "assay_type": "physicochemical", "design": "depletion of supplied active by aqueous extraction / release rate, % of supplied active: concentration or dose not given beside the values", "conditions": "for release rate, % of supplied active: FIG. 8; for recoverable active released to water: FIG. 9; for release rate of active: FIG. 10", "protocol": "as §1\nThe solvent extraction method used above represents a rapid screen for the comparative entrainment behavior of actives and surfactants in the formulated latex system. To address the problem of foliar retention and longevity of actives using a single field application is more a function of rainfall frequency and intensity. To better understand this process under laboratory conditions, we employed a continuous/sequential aqueous (pH 6.0-6.8) leaching process, with periodic sampling and replacement of the solution over periods up to 288 hrs. This is a rather harsh leaching process, but is more representative than the water/MeOH solvent extraction procedure used for screening.\nIn the simulated rainfall study, we compared the aqueous extraction patterns for cyproconazole at 0.06% with 0.24% EtOH (1×) added to latex (with no surfactant), cyproconazole with […] and 0.05% PP912T added to latex, and cyproconazole with 1% EtOH (4×) and 0.05% PP912T added to latex. This combination was designed to determine formulation variables including surfactant and increased EtOH.\nAqueous extraction of formulations containing chlorothalonil and spiroxamine with latex without surfactant and with PP912T, AU-398 and AU-391A were compared to evaluate long term extraction profiles and residual active after 144 hrs of extraction, sampled at 24 hr intervals."}, "[3]": {"conditions": "EtOH printed for cyproconazole only; cited from earlier work"}, "[4]": {"conditions": "aqueous 0.2% EtOH, without latex, FIG. 1A"}},
  "note": "Values joined by “and” are separate entries in the source; they are usually repeats but may differ in a detail not shown here. Identical values can stand only once.",
  "data": [
    {"smiles": "CC(C1CC1)C(O)(Cn1cncn1)c1ccc(Cl)cc1", "note": "(centres unmarked) [cyproconazole]", "values": [
      {"measurement": "50% MeOH fraction of active", "setting": "[1]; [4]", "value": 68, "unit": "%"},
      {"measurement": "100% MeOH fraction of active", "setting": "[1]; [4]", "value": "13.5% and 13%"},
      {"measurement": "water extractable fraction of active", "setting": "[1]; [4]", "value": 18.5, "unit": "%"},
      {"measurement": "100% MeOH fraction of active", "setting": "[1]; dissolved in ethanol, added to 2% latex solution, FIG. 1A", "value": 32, "unit": "%"},
      {"measurement": "release rate, % of supplied active", "setting": "[2]; latex with AU-391A, at 6 days", "value": 60, "unit": "%"},
      {"measurement": "release rate, % of supplied active", "setting": "[2]; latex with AU-398, at 6 days", "value": 50, "unit": "%"},
      {"measurement": "release rate, % of supplied active", "setting": "[2]; latex with PP912T, at 6 days", "value": 73, "unit": "%"},
      {"measurement": "depletion of supplied active by aqueous extraction", "setting": "[2]; latex with surfactant PP912T, at 288 days, FIG. 7", "value": 90, "unit": "%"},
      {"measurement": "time to attain 90% loss to water", "setting": "[2]; latex/EtOH, FIG. 1B", "value": 12, "unit": "days"},
      {"measurement": "time at which aqueous loss of supplied active was 90%", "setting": "[2]; without latex, FIG. 1B", "value": 2.5, "unit": "days"}
    ]},
    {"smiles": "CCCN(CC)CC1COC2(CCC(C(C)(C)C)CC2)O1", "note": "(centres unmarked) [spiroxamine]", "values": [
      {"measurement": "release to water compared to the no-surfactant control", "setting": "[1]; latex, with PP912T, AU-398 and AU-391A, FIG. 6", "value": "increased release"},
      {"measurement": "recoverable active released to water", "setting": "[2]; latex alone, 144 hr extraction", "value": 85, "unit": "%"},
      {"measurement": "recoverable active released to water", "setting": "[2]; latex plus AU-391A, 144 hr extraction", "value": 85, "unit": "%"},
      {"measurement": "recoverable active released to water", "setting": "[2]; latex plus AU-398, 144 hr extraction", "value": 50, "unit": "%"},
      {"measurement": "recoverable active released to water", "setting": "[2]; latex plus PP912T, 144 hr extraction", "value": 50, "unit": "%"},
      {"measurement": "effect on release compared to latex alone", "setting": "[2]; latex with AU-391A", "value": "no effect"},
      {"measurement": "release rate compared to latex alone", "setting": "[2]; latex with PP912T and AU-398", "value": "substantial reduction"},
      {"measurement": "active released", "setting": "[2]; with latex, without surfactant, 6 days extraction, FIG. 13", "value": 94, "unit": "%"}
    ]},
    {"smiles": "N#Cc1c(Cl)c(Cl)c(Cl)c(C#N)c1Cl", "note": "[chlorothalonil]", "values": [
      {"measurement": "100% MeOH retention compared to no surfactant", "setting": "[1]; latex, with PP912T and AU-398, FIG. 6", "value": "increase"},
      {"measurement": "release rate of active", "setting": "[2]; latex alone, at 6 days", "value": 63, "unit": "%"},
      {"measurement": "release rate of active", "setting": "[2]; latex with surfactants, 6 days", "value": "80-88%"},
      {"measurement": "active remained after extraction", "setting": "[2]; without surfactant, after 6 days of extraction, FIG. 11", "value": 16, "unit": "%"},
      {"measurement": "solvent solubility", "setting": "[3]", "value": 10000, "unit": "µg/mL"}
    ]}
  ]
}
